Where a SMILES comes first, the peptide text is derived from it. The star is where a group is joined. Octanoyl(6-Me) = CCC(C)CCCCC(=O)*
Legend:
[1] = Tryptophan fluorescence and acrylamide quenching with DPPC membranes; settings: second symbol of cancer mimic/healthy mimic; further: key: +, peptide effect; ++, increasing peptide effect; +++: etc; ++++: etc; −, no peptide effect
Procedure: (§1) Appropriate amounts of respective phospholipid stock solution were dried under a stream of nitrogen and stored in vacuum overnight to completely remove organic solvents. The dry lipid film was then dispersed in phosphate buffered saline (PBS, 20 mM NaPi, 130 mM NaCl, pH 7.4) and hydrated at a temperature well above the gel to fluid phase transition of the respective phospholipid under intermittent vigorous vortex-mixing. The lipid concentration was 0.1 weight % for calorimetric and 2 % for leakage experiments. Hydration was carried out in presence or absence of peptides at a lipid-to-peptide ratio of 25:1 and 12.5:1 using a protocol described for POPS (Jiménez-Monreal et al. [1998]), DPPS (Jing et al. [2005]) and DPPC (Sevcsik et al. [2007]). Briefly hydration of POPS films occurred at 30 °C, DPPS at 65 °C and DPPC at 50 °C, for 2 h with vortexing for 1 min every 15 min. The hydration of the lipid mixtures DPPS/DPPC 1:5 and DPPS/DPPC 1:1 were performed at 65 °C for 2 h by vortexing accompanied by one freeze–thaw cycle every 15 min. The fully hydrated samples were stored for at least 1 h at room temperature until measurement.
(§2) Fluorescence spectroscopy experiments were performed using a SPEX Fluoro Max-3 spectrofluorimeter (Jobin–Yvon, Longjumeaum, France) and spectra were analyzed with Datamax software.
(§3) Tryptophan fluorescence spectra were obtained at room temperature using an excitation wavelength of 282 nm and a slit width of 5 nm for excitation and emission monochromators. Quenching of Tryptophan was carried out in the presence and absence of phospholipid liposomes (lipid-to-peptide ratio 25:1) using 0.1, 0.4 and 0.7 M acrylamide. The data were analyzed according to the Stern–Volmer equation (Eq. 2):2 F0F0FF=1+KSVQ where F0 and F represent the fluorescence emission intensities in the absence and presence of the quencher molecule (Q) and KSV is the Stern–Volmer quenching constant, which is a quantitative measure for the accessibility of tryptophan to acrylamide (Tao and Cho [1979]).

[2] = test system: melanoma cell line SBcl-2; experiment: Propidium iodide-uptake toxicity assay, melanoma SBcl-2; type: cell-based, human; set-up: Toxicity—PI uptake, cancer cells / Cancer specificity: key: +, peptide effect; ++, increasing peptide effect; +++: etc; ++++: etc; −, no peptide effect; settings: for Toxicity—PI uptake, cancer cells: first symbol of cancer cells/healthy cells; on Toxicity—PI uptake, cancer cells: key: +, peptide effect; ++, increasing peptide effect; +++: etc; ++++: etc; −, no peptide effect
Description: (§4) Epidermis was separated. […] All cell cultures were periodically checked for mycoplasma.

[3] = Differential scanning calorimetry of DPPC liposomes; settings: for Bilayer perturbation—DSC, healthy mimic: second symbol of cancer mimic/healthy mimic; on Bilayer perturbation—DSC, healthy mimic: key: +, peptide effect; ++, increasing peptide effect; +++: etc; ++++: etc; −, no peptide effect
Procedure: as §1
(§5) DSC experiments were performed with a differential scanning calorimeter (VP-DSC) from MicroCal, Inc. (Northhampton, MA, USA). Heating scans were performed at a scan rate of 30 °C/h (pre-scan thermostating 30 min) with a final temperature of approximately 10 °C above the main transition temperature (Tm) and cooling scans at the same scan rate (pre-scan thermostating 1 min) with a final temperature approximately 20 °C below Tm. The heating/cooling cycle was performed three times. Enthalpies were calculated by integration of the peak areas after normalization to phospholipid concentration and baseline adjustment using the MicroCal Origin software (VP-DSC version). The phase transition temperature was defined as the temperature at the peak maximum (McElhaney [1982]).

[4] = Differential scanning calorimetry of DPPS liposomes; settings: for Bilayer perturbation—DSC, cancer mimic: first symbol of cancer mimic/healthy mimic; on Bilayer perturbation—DSC, cancer mimic: key: +, peptide effect; ++, increasing peptide effect; +++: etc; ++++: etc; −, no peptide effect
Procedure: as §1, §5

[5] = test system: differentiated non-tumorigenic melanocytes; settings: for melanocytes killed (PI-uptake): 20 µM peptide, 8 h, media containing serum
Procedure: Human melanocytes used as healthy control cells were isolated from foreskin. Foreskin was cut into small pieces and incubated with 0.3 % trypsin (PAA) overnight at 4 °C and for 1 h at 37 °C. Epidermis was separated. Cells were mechanically removed from the cell layer and centrifuged at 300 g for 3 min. The pellet was re-suspended and cells further cultured in melanocyte growth medium (Biomedica, Vienna, Austria, PromoCell GmbH, Heidelberg, Germany). All cells were kept in a 5 % CO2 atmosphere at 37 °C. At 90 % confluence cell-culture flasks were passaged after detachment with accutase (PAA, Pasching Austria). All cell cultures were periodically checked for mycoplasma.
Cells were collected, re-suspended in media and diluted to a concentration of 10^6 cells/ml. Aliquots of 10^5 cells/100 µl media were incubated with different amount of peptides (0–80 µM) for 8 h at 37 °C and 5 % CO2. Propidium iodide (PI) (2 µl/10^5cells of 50 µg/ml, Invitrogen, Camarillo, CA, USA) was added and cells were again incubated for 5 min at room temperature in the dark. Excitation and emission wavelengths were 536 and 617 nm, respectively. Cytotoxicity was calculated from the percentage of PI positive cells in media alone (P0) and in the presence of peptide (PX). […] Triton-X-100 was used to determine 100 % of PI positive cells (P100).1 %PI-uptake=100∗(PX-P0)/(P100-P0)

[6] = Differential scanning calorimetry of DPPC/DPPS 1:1 liposomes; settings: lipid to peptide 25:1
Procedure: as §1, §5

[7] = Tryptophan fluorescence and acrylamide quenching with DPPS membranes; set-up: key: +, peptide effect; ++, increasing peptide effect; +++: etc; ++++: etc; −, no peptide effect; settings: first symbol of cancer mimic/healthy mimic (PS)
Procedure: as §1, §2, §3

[8] = Differential scanning calorimetry of DPPC/DPPS 5:1 liposomes; settings: lipid to peptide 25:1, split transition given as peak/peak
Procedure: as §1, §5

[9] = test system: melanoma metastases WM164; experiment: Propidium iodide-uptake toxicity assay, melanoma metastases WM164; type: cell-based, human; settings: 20 µM peptide, 8 h
Description: as §4

[10] = ANTS/DPX leakage from POPC LUVs; settings: for ANTS/DPX release from POPC liposomes: 2–8 µM peptide; for Permeability—ANTS/DPX leakage, healthy mimic: second symbol of cancer mimic/healthy mimic
Procedure: [The procedure below names another target; the source lists this target under the same test.] as §1
(§6) Leakage of aqueous contents from liposomes was determined using the 8-aminonaphthalene-1,3,6-trisulfonic acid/p-xylene-bis-pyridinium bromide (ANTS/DPX) assay (Ellens et al. [1985]). Lipid films (preparation see above) were hydrated with 12.5 mM ANTS, 45 mM DPX, 68 mM NaCl, 10 mM HEPES (4-(2-hydroxyethyl)-1-piperazineethanesulfonic acid) at pH 7.4 following a standard procedure. Subsequently, the dispersions were extruded 20 times through a polycarbonate filter (Millipore-Isopore™) of 0.1 µm pore size to obtain LUVs. Unilamellarity and size were tested by X-ray and dynamic light scattering, respectively. The ANTS/DPX encapsulating vesicles were separated from free ANTS/DPX by exclusion chromatography using a column filled with Sephadex™ G-75 (Amesham Biosciences) fine gel swollen in an isosmotic buffer (10 mM HEPES, 140 mM NaCl, pH 7.4). The void volume fractions were collected and the phospholipid concentration was determined by phosphate analysis (Bartlett [1959]; Broekhuyse [2005]). The fluorescence measurements were performed in 2 mL of the isosmotic buffer in a quartz cuvette at 37 °C. Aliquots of LUVs were diluted with the isosmotic buffer to a final lipid concentration of 50 µM. Fluorescence spectra were obtained at 37 °C using an excitation wavelength of 360 nm, an emission wavelength of 530 nm and a slit width of 5 nm for both excitation and emission monochromators. Fluorescence emission was recorded as a function of time before and after the addition of incremental amounts of peptide. The fluorescence increase due to leakage and subsequent dilution of quenched dye was measured after addition of peptides. Peptides were added to final concentrations of 2, 4 and 8 µM, corresponding to peptide-to-lipid molar ratios of 1:25, 1:12.5 and 1:6.25, respectively. Data are presented in terms of fluorescence intensity (IF and were calculated using Eq. 3:3 IF=F-F0/Fmax-F0 F is the measured fluorescence, F0 the initial fluorescence without peptide and Fmax the fluorescence corresponding to 100 % leakage gained by addition of 1 % Triton X-100.

[11] = ANTS/DPX leakage from POPS LUVs; settings: for ANTS/DPX release from POPS vesicles: 50 µM lipid LUVs; for specificity/selectivity for cancer over non-cancer mimic, ANTS/DPX leakage: POPS versus POPC LUVs; for Permeability—ANTS/DPX leakage, cancer mimic: first symbol of cancer mimic/healthy mimic
Procedure: as §1, §6

E. coli = settings: ref Zweytick et al. [2011b]; cited from earlier work
Description: It has been reported by Yang et al. (Yang et al. [2004]) that a prerequisite for antitumor but not for antibacterial peptides derived of bovine lactoferrin is a minimum net charge close to +7 and to consist of at least 14 amino acids.

RBCs = settings: 2.5 % RBCs, 500 µg peptide/ml; ref Zweytick et al. [2011b]; cited from earlier work
Description: The correlation of activity against bacteria with activity on bacterial model systems for lactoferricin derived peptides and their N-acylated derivatives was shown recently (Zweytick et al. [2011b]).

[12] = DPPC liposomes in PBS pH 7.4, lipid to peptide 25:1, scan rate 30 °C/h
[13] = DPPC liposomes, lipid to peptide 25:1
[14] = DPPC liposomes, lipid to peptide 25:1, transition half-width
[15] = 25:1 lipid-to-peptide molar ratio
[16] = DPPS liposomes, lipid to peptide 25:1, split transition given as peak/peak
[17] = 50 µM lipid LUVs, pH 7.4, 37 °C
[18] = 8 µM peptide (peptide-to-lipid 1:6.25), 10 mM HEPES 140 mM NaCl pH 7.4, 37 °C, fluorescence
[19] = DPPC liposomes, lipid to peptide 12.5:1

Compound: PFWRIRIRRPRRIRIRWFP-NH2 [R-DIM-P-LF11-322, retro repeat derivative: LF11-322-proline-LF11-322 retro]
- Bilayer affinity—quenching, healthy mimic [1]: −
- specificity for cancer cells, PI-uptake ratio melanoma SBcl-2 versus melanocytes ([2]; 20 µM peptide, 8 h): higher than 1,000 fold
- PI positive SBcl-2 cells ([2]; 20 µM peptide, 8 h, media containing serum): more than 80%
- Cancer specificity ([2]; cancer cells/healthy cells): ++++
- Toxicity—PI uptake, cancer cells [2]: +++
- ΔH pre [3, 12]: 1.5 kcal/mol
- Tm [3, 13]: 41.3 °C
- Tpre [3, 13]: 34.5 °C
- ΔH m [3, 13]: 9.1 kcal/mol
- T1/2 [3, 14]: 0.25 °C
- Bilayer perturbation—DSC, healthy mimic [3]: −
- decrease of the transition temperature of DPPS [4, 15]: ~5 °C
- reduction of the main transition enthalpy of DPPS [4, 15]: 70%
- T1/2 [4, 16]: 1.53 °C
- Tm [4, 16]: 47.9 °C
- ΔH m [4, 16]: 3.1 kcal/mol
- Bilayer perturbation—DSC, cancer mimic [4]: +++
- Toxicity—PI uptake, healthy cells [5]: −
- melanocytes killed (PI-uptake) [5]: < 1%
- T1/2 [6]: 1.08 °C
- Tm [6]: 42.4 °C
- ΔH m [6]: 7.9 kcal/mol
- Bilayer affinity—quenching, cancer mimic [7]: ++
- T1/2 [8]: 0.83 °C
- Tm [8]: 42.2 °C
- ΔH m [8]: 8.2 kcal/mol
- specificity, PI-uptake ratio melanoma metastases WM164 versus melanocytes [9]: > 500 fold
- ANTS/DPX release from POPC liposomes [10, 17]: < 5%
- Permeability—ANTS/DPX leakage, healthy mimic [10]: −
- ANTS/DPX release from POPS vesicles [11, 18]: 90–100%
- specificity/selectivity for cancer over non-cancer mimic, ANTS/DPX leakage [11]: up to 20 fold
- Permeability—ANTS/DPX leakage, cancer mimic [11]: +++

Compound: PFWRIRIRR-NH2 [LF11-322]
- Bilayer affinity—quenching, healthy mimic [1]: −
- killing (PI-uptake) of SBcl-2 ([2]; 80 µM peptide, 8 h, media containing serum, 37 °C): < 10%
- minimal inhibitory concentration for E. coli (E. coli): 8 to 16 µg/mL
- ΔH pre [3, 12]: 1.1 kcal/mol
- T1/2 [3, 19]: 0.26 °C
- Tm [3, 19]: 41.3 °C
- Tpre [3, 19]: 34.5 °C
- ΔH m [3, 19]: 9.2 kcal/mol
- ΔH pre [3, 19]: 1.0 kcal/mol
- Tm [3, 13]: 41.3 °C
- Tpre [3, 13]: 34.8 °C
- ΔH m [3, 13]: 9.0 kcal/mol
- T1/2 [3, 14]: 0.17 °C
- Bilayer perturbation—DSC, healthy mimic [3]: −
- reduction of the main transition enthalpy of DPPS [4, 15]: 10%
- T1/2 ([4]; DPPS liposomes, lipid to peptide 12.5:1): 2.48 °C
- Bilayer perturbation—DSC, cancer mimic [4]: +
- T1/2 [6]: 2.42 °C
- Tm [6]: 44.2 °C
- ΔH m [6]: 8.3 kcal/mol
- Bilayer affinity—quenching, cancer mimic [7]: ++
- T1/2 [8]: 0.80 °C
- Tm [8]: 42.4 °C
- ΔH m [8]: 10.1 kcal/mol
- specificity, PI-uptake ratio melanoma metastases WM164 versus melanocytes [9]: twofold
- ANTS/DPX release from POPC liposomes [10, 17]: < 5%
- Permeability—ANTS/DPX leakage, healthy mimic [10]: −
- ANTS/DPX release from POPS vesicles [11, 18]: ~ 20%
- Permeability—ANTS/DPX leakage, cancer mimic [11]: +

Compound: CCC(C)CCCCC(=O)N1CCC[C@H]1C(=O)N[C@@H](Cc1ccccc1)C(=O)N[C@@H](Cc1c[nH]c2ccccc12)C(=O)N[C@@H](CCCNC(=N)N)C(=O)N[C@H](C(=O)N[C@@H](CCCNC(=N)N)C(=O)N[C@H](C(=O)N[C@@H](CCCNC(=N)N)C(=O)N[C@@H](CCCNC(=N)N)C(N)=O)[C@@H](C)CC)[C@@H](C)CC (stereo partly drawn) [6-MO-LF11-322] ({Octanoyl(6-Me)}-PFWRIRIRR-NH2)
- Bilayer affinity—quenching, healthy mimic [1]: +
- specificity for cancer cells, PI-uptake ratio melanoma SBcl-2 versus melanocytes ([2]; 20 µM peptide, 8 h): threefold to fourfold
- IC50 ([2]; PI-uptake, cancer cells, 8 h, media containing serum): ~20 µM
- specificity for cancer cells after 1 h ([2]; after 1 h, data not shown): sevenfold
- Toxicity—PI uptake, cancer cells [2]: ++
- lysis of RBCs (RBCs): 20%
- ΔH pre [3, 12]: 0.4 kcal/mol
- Tpre [3, 13]: 34.6 °C
- ΔH m [3, 13]: 9.1 kcal/mol
- T1/2 [3, 14]: 0.26 °C
- Bilayer perturbation—DSC, healthy mimic [3]: +
- reduction of the main transition enthalpy of DPPS [4, 15]: 35%
- T1/2 [4, 16]: 2.24 °C
- Bilayer perturbation—DSC, cancer mimic [4]: ++
- Toxicity—PI uptake, healthy cells [5]: +
- melanocytes killed (PI-uptake) [5]: ~ 15%
- T1/2 [6]: 2.45 °C
- Tm [6]: 43.3 °C
- ΔH m [6]: 5.4 kcal/mol
- Bilayer affinity—quenching, cancer mimic [7]: ++
- leakage of POPC vesicles ([10]; peptide-to-lipid molar ratio of 1:6.25 (8 µM), 50 µM lipid LUVs, pH 7.4, 37 °C): about 20%
- Permeability—ANTS/DPX leakage, healthy mimic [10]: +
- ANTS/DPX release from POPS vesicles ([11]; 4 µM peptide (peptide-to-lipid 1:12.5), pH 7.4, 37 °C): ~ 30%
- ANTS/DPX release from POPS vesicles [11, 18]: ~70%
- specificity/selectivity for cancer over non-cancer mimic, ANTS/DPX leakage [11]: threefold
- Permeability—ANTS/DPX leakage, cancer mimic [11]: ++
